PubChem BioAssay AID2060885 (Molecular Pharmacology Branch, DTP, NCI, 2025)

Test system: NCI-H23 complex spheroids with HUVEC/MSC, viability
Assay: Anticancer human tumor NCI-H23 cell line growth inhibition [RAS];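 note: spheroids exposed to compound for 7 days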;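 for viability, T/C: 100% = DMSO vehicle control viability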
Settings: for IC50: curve of first compound; for viability, T/C: stronger effect = lower value; active = viability on the fitted dose curve at most 10% of control; inactive = the rest
Method in brief: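 Tumour cells grown as complex spheroids with HUVEC endothelial cells and mesenchymal stem cells, treated with RAS pathway inhibitor combinations. Each agent spans half-log steps from near clinical Cmax, or 10 microM where Cmax is unknown.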

[1] = second compound 0.0316 µM, first compound 0.00316 µM
[2] = second compound 0.0316 µM, first compound 0.01 µM
[3] = second compound 0.0316 µM, first compound 0.0316 µM
[4] = second compound 0.0316 µM, first compound 0.1 µM
[5] = second compound 0.0316 µM, first compound 0.316 µM
[6] = second compound 0.0316 µM, first compound 1 µM
[7] = second compound 0.1 µM, first compound 0.00316 µM
[8] = second compound 0.1 µM, first compound 0.01 µM
[9] = second compound 0.1 µM, first compound 0.0316 µM
[10] = second compound 0.1 µM, first compound 0.1 µM
[11] = second compound 0.1 µM, first compound 0.316 µM
[12] = second compound 0.1 µM, first compound 1 µM
[13] = second compound 0.316 µM, first compound 0.00316 µM
[14] = second compound 0.316 µM, first compound 0.01 µM
[15] = second compound 0.316 µM, first compound 0.0316 µM
[16] = second compound 0.316 µM, first compound 0.1 µM
[17] = second compound 0.316 µM, first compound 0.316 µM
[18] = second compound 0.316 µM, first compound 1 µM
[19] = second compound 1 µM, first compound 0.00316 µM
[20] = second compound 1 µM, first compound 0.01 µM
[21] = second compound 1 µM, first compound 0.0316 µM
[22] = second compound 1 µM, first compound 0.1 µM
[23] = second compound 1 µM, first compound 0.316 µM
[24] = second compound 1 µM, first compound 1 µM

C=CC(=O)Nc1cc(Nc2nccc(-c3cn(C)c4ccccc34)n2)c(OC)cc1N(C)CCN(C)C + C=CC(=O)N1CCN(c2nc(OCC3CCCN3C)nc3c(F)c(-c4nc(N)cc(C)c4C(F)(F)F)c(Cl)cc23)C(C)C1
7.6 nM: IC50 (second compound 0.01 µM)
inactive: viability, T/C (second compound 0.00316 µM, first compound 0.00316 µM) 66.1% | viability, T/C (second compound 0.00316 µM, first compound 0.01 µM) 83.2% | viability, T/C (second compound 0.00316 µM, first compound 0.0316 µM) 56.1% | viability, T/C (second compound 0.00316 µM, first compound 0.1 µM) 53.5% | viability, T/C (second compound 0.00316 µM, first compound 0.316 µM) 57.2% | viability, T/C (second compound 0.00316 µM, first compound 1 µM) 49.6% | viability, T/C (second compound 0.01 µM, first compound 0.00316 µM) 51.5% | viability, T/C (second compound 0.01 µM, first compound 0.01 µM) 52.9% | viability, T/C (second compound 0.01 µM, first compound 0.0316 µM) 45.1% | viability, T/C (second compound 0.01 µM, first compound 0.1 µM) 36.9% | viability, T/C (second compound 0.01 µM, first compound 0.316 µM) 43.1% | viability, T/C (second compound 0.01 µM, first compound 1 µM) 37.1% | viability, T/C [1] 49.4% | viability, T/C [2] 48.3% | viability, T/C [3] 40.4% | viability, T/C [4] 35.2% | viability, T/C [5] 37.1% | viability, T/C [6] 33.6% | viability, T/C [7] 45% | viability, T/C [8] 39.4% | viability, T/C [9] 33.8% | viability, T/C [10] 34.4% | viability, T/C [11] 29.6% | viability, T/C [12] 27.3% | viability, T/C [13] 44.7% | viability, T/C [14] 43% | viability, T/C [15] 34% | viability, T/C [16] 32% | viability, T/C [17] 29.4% | viability, T/C [18] 35.5% | viability, T/C [19] 39.2% | viability, T/C [20] 41.5% | viability, T/C [21] 36.9% | viability, T/C [22] 34.9% | viability, T/C [23] 30.9% | viability, T/C [24] 28.3%
< 3.16 nM: IC50 (second compound 0.1 µM) | IC50 (second compound 0.316 µM) | IC50 (second compound 1 µM)
3.62 nM: IC50 (second compound 0.0316 µM)
1000 nM: IC50 (second compound 0.00316 µM)

CCc1c2c(nc3ccc(O)cc13)-c1cc3c(c(=O)n1C2)COC(=O)[C@]3(O)CC + CCn1c(-c2cccnc2C(C)OC)c2c3cc(ccc31)N1CCOC(CC(NC(=O)C(C(C)C)N(C)C(=O)C3(F)CCN(C(=O)C#CC(C)(C)N(C)C)CC3)C(=O)N3CCCC(N3)C(=O)OCC(C)(C)C2)C1
< 0.949 nM: IC50 (second compound 0.000949 µM) | IC50 (second compound 0.003 µM) | IC50 (second compound 0.00949 µM) | IC50 (second compound 0.03 µM) | IC50 (second compound 0.0949 µM) | IC50 (second compound 0.3 µM)
inactive: viability, T/C (second compound 0.000949 µM, first compound 0.000949 µM) 27.9% | viability, T/C (second compound 0.000949 µM, first compound 0.003 µM) 13.4% | viability, T/C (second compound 0.003 µM, first compound 0.000949 µM) 23.4% | viability, T/C (second compound 0.003 µM, first compound 0.003 µM) 12.6% | viability, T/C (second compound 0.00949 µM, first compound 0.000949 µM) 27.1% | viability, T/C (second compound 0.00949 µM, first compound 0.003 µM) 11.9% | viability, T/C (second compound 0.03 µM, first compound 0.000949 µM) 25.5% | viability, T/C (second compound 0.03 µM, first compound 0.003 µM) 12.3% | viability, T/C (second compound 0.0949 µM, first compound 0.000949 µM) 23.6% | viability, T/C (second compound 0.3 µM, first compound 0.000949 µM) 18.7%
active: viability, T/C (second compound 0.000949 µM, first compound 0.00949 µM) 3.4% | viability, T/C (second compound 0.000949 µM, first compound 0.03 µM) 2.46% | viability, T/C (second compound 0.000949 µM, first compound 0.0949 µM) 1.53% | viability, T/C (second compound 0.000949 µM, first compound 0.3 µM) 0.79% | viability, T/C (second compound 0.003 µM, first compound 0.00949 µM) 3.29% | viability, T/C (second compound 0.003 µM, first compound 0.03 µM) 1.82% | viability, T/C (second compound 0.003 µM, first compound 0.0949 µM) 1.53% | viability, T/C (second compound 0.003 µM, first compound 0.3 µM) 0.91% | viability, T/C (second compound 0.00949 µM, first compound 0.00949 µM) 3.95% | viability, T/C (second compound 0.00949 µM, first compound 0.03 µM) 2.01% | viability, T/C (second compound 0.00949 µM, first compound 0.0949 µM) 1.54% | viability, T/C (second compound 0.00949 µM, first compound 0.3 µM) 0.96% | viability, T/C (second compound 0.03 µM, first compound 0.00949 µM) 3.53% | viability, T/C (second compound 0.03 µM, first compound 0.03 µM) 2.17% | viability, T/C (second compound 0.03 µM, first compound 0.0949 µM) 1.25% | viability, T/C (second compound 0.03 µM, first compound 0.3 µM) 0.77% | viability, T/C (second compound 0.0949 µM, first compound 0.003 µM) 8.82% | viability, T/C (second compound 0.0949 µM, first compound 0.00949 µM) 3.56% | viability, T/C (second compound 0.0949 µM, first compound 0.03 µM) 1.45% | viability, T/C (second compound 0.0949 µM, first compound 0.0949 µM) 0.88% | viability, T/C (second compound 0.0949 µM, first compound 0.3 µM) 0.84% | viability, T/C (second compound 0.3 µM, first compound 0.003 µM) 7.22% | viability, T/C (second compound 0.3 µM, first compound 0.00949 µM) 2.67% | viability, T/C (second compound 0.3 µM, first compound 0.03 µM) 1.54% | viability, T/C (second compound 0.3 µM, first compound 0.0949 µM) 1.11% | viability, T/C (second compound 0.3 µM, first compound 0.3 µM) 1.43%

O=C(c1ccc(F)c(F)c1Nc1ccc(I)cc1F)N1CC(O)([C@@H]2CCCCN2)C1 + C#Cc1c(F)ccc2cc(O)cc(-c3ncc4c(N5CC6CCC(C5)N6)nc(OCC56CCCN5CC(F)C6)nc4c3F)c12
82.6 nM: IC50 (second compound 0.0316 µM)
73.2 nM: IC50 (second compound 0.316 µM)
68.3 nM: IC50 (second compound 1 µM)
< 3.16 nM: IC50 (second compound 10 µM)
inactive: viability, T/C [1] 108% | viability, T/C [2] 105% | viability, T/C [3] 70.8% | viability, T/C [4] 44.1% | viability, T/C [5] 35.9% | viability, T/C [6] 19.1% | viability, T/C [7] 103% | viability, T/C [8] 103% | viability, T/C [9] 65.1% | viability, T/C [10] 47.1% | viability, T/C [11] 30.9% | viability, T/C [12] 21.6% | viability, T/C [13] 99.8% | viability, T/C [14] 112% | viability, T/C [15] 72.6% | viability, T/C [16] 42.5% | viability, T/C [17] 31.1% | viability, T/C [18] 20.4% | viability, T/C [19] 91.2% | viability, T/C [20] 95.8% | viability, T/C [21] 60.4% | viability, T/C [22] 43.8% | viability, T/C [23] 34.4% | viability, T/C [24] 21.1% | viability, T/C (second compound 3.16 µM, first compound 0.00316 µM) 56.3% | viability, T/C (second compound 3.16 µM, first compound 0.01 µM) 58.7% | viability, T/C (second compound 3.16 µM, first compound 0.0316 µM) 42.4% | viability, T/C (second compound 3.16 µM, first compound 0.1 µM) 40% | viability, T/C (second compound 3.16 µM, first compound 0.316 µM) 30.3% | viability, T/C (second compound 3.16 µM, first compound 1 µM) 17% | viability, T/C (second compound 10 µM, first compound 0.00316 µM) 36.5% | viability, T/C (second compound 10 µM, first compound 0.01 µM) 38.3% | viability, T/C (second compound 10 µM, first compound 0.0316 µM) 31.6% | viability, T/C (second compound 10 µM, first compound 0.1 µM) 31.9% | viability, T/C (second compound 10 µM, first compound 0.316 µM) 22.1% | viability, T/C (second compound 10 µM, first compound 1 µM) 12.3%
15.4 nM: IC50 (second compound 3.16 µM)
77.3 nM: IC50 (second compound 0.1 µM)
